The data set concerns C57BL6/J mice. The data set can be described thus: Murine model: liver damage induced with acetaminophen, serum markers by SPR antibody array and Western blot. The format is in vivo. The settings on record: male C57BL6/J mice, 300 mg/kg intraperitoneally. On the procedure: The effectiveness of various proteins as markers was tested by inducing liver damage in mice using acetaminophen and then assessing serum for various proteins by surface plasmon resonance (SPR) detection of complex formation with the relevant antibody and confirmed by Western blot. The known marker, AST, was used as a control.
Nine week old male C57BL6/J mice were fasted for 24 hours and then administered 300 mg/kg acetaminophen intraperitoneally. The mice were euthanized with CO2 and whole blood was collected via cardiac puncture at various time intervals. The whole blood was incubated at 4° C. for 12 hours and centrifuged at 2,000 g for 10 minutes to obtain serum which was stored at −80° C. and then analyzed by SPR antibody array as described above and validated by Western blot. (The concentration of the known marker serum […] (AST) was determined by enzymatic assay.)
For orientation: Surface plasmon resonance follows binding to a sensor surface in real time, without labels.

SMILES strings stand for the structures.

For the molecule `CC(=O)Nc1ccc(O)cc1` [acetaminophen], the “plasma levels of plasminogen and RBP4 (Western blot, FIG. 3)” value (12-24 hours) is “decrease”. For the same molecule, the “serum levels of control marker AST (enzymatic assay)” value (same time as the novel markers) was “corresponding increase”. For the same molecule, the “plasma level of the 12 markers whose level increases in the event of liver injury (Western blot, FIG. 3)” value (fasted 24 hours, after 12-24 hours, after which the levels declined) is on record as “elevated levels”.

These data come from patent US8632982B2, “Biomarkers for liver injury” (Institute for Systems Biology, priority 2009, dated 2014).
